# Laboratory results from patent US20200352931A1, “OXALAMIDES AS MODULATORS OF INDOLEAMINE 2,3-DIOXYGENASE” (PHENEX DISCOVERY VERWALTUNGS-GMBH, priority 2017, published 2020).
# Molecular target: T1, Indoleamine 2,3-Dioxygenase (IDO1) in SKOV-3 cells (Homo sapiens, UniProt P14902)
# T1 construct: endogenous in cells; host or cells: SKOV-3 (ATCC HTB-77), stimulated with 50 ng/ml interferon gamma
# Experiment: SKOV-3 cellular indoleamine 2,3-dioxygenase assay
# Conditions: 50 ng/ml Interferon gamma, 100 μM L-Tryptophan, 24 hours, N-Formylkynurenin fluorescence, read-out: cell based activity (IC50)
# Protocol: SKOV-3 Cellular Indoleamine 2,3-Dioxygenase Assay
# SKOV-3 cells were obtained from the American Type Culture Collection (ATCC® HTB-77™) and maintained in McCoy's medium (Pan Biotech) supplemented with 10% fetal bovine serum and 1% Penicilin/Streptomycin. Cells were kept at 37° C. in a humidified incubator with 5% CO2. For assay preparation, cells were seeded at a density of 2*10^5/m into black clear bottom 96 well plates in 100 μl medium/well supplemented with 50 ng/ml Interferon gamma (eBioscience, Thermo Fisher Scientific). After cells fully adhered to the plate, dilution series of compounds were added in medium containing additional L-Tryptophan to a final L-Tryptophan concentration of 100 μM. The cells were incubated for 24 hours. Detection of produced N-Formylkynurenin was performed by addition of 3-Methylpiperidine to a final concentration of 200 mM. The plates were sealed and heated to 65° C. for 20 minutes in a water bath. After cooling the fluorescence of each well was recorded with a Victor™ X4 (PerkinElmer) plate reader at an emission wavelength of 535 nm and excitation at 405 nm (Tomek et al.; Anal Bioanal Chem (2013) 405:2515-2524., Tomek et al.; Biochim Biophys Acta. 2015 September; 1850(9):1772-80).
# T1 sequence (P14902 whole entry): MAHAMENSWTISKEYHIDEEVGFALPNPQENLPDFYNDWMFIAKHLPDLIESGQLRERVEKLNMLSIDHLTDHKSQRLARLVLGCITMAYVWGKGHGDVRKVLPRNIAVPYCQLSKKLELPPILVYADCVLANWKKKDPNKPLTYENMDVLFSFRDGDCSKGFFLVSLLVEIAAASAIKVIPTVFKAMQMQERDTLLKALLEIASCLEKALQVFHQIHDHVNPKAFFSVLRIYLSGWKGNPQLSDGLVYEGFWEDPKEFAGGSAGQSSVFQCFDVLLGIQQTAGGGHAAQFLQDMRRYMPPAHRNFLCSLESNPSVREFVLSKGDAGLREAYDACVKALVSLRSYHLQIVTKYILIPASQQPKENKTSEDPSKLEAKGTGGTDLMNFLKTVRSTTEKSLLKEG
row,SMILES,IC50 [nM]
1,"O=C(Nc1ccc(Cl)cc1)C(=O)N1CCC2(CC1)COc1cc(C(F)F)ccc12 [Example 101, N-(4-Chlorophenyl)-2-(6-(difluoromethyl)-2H-spiro[benzofuran-3,4′-piperidin]-1′-yl)-2-oxoacetamide]",< 100
2,"O=C(Nc1ccc(Cl)cc1)C(=O)N1CCCC2(CC1)COc1cc(C(F)(F)F)ccc12 (stereo not drawn) [Example 102, N-(4-Chlorophenyl)-2-oxo-2-(6′-(trifluoromethyl)-2′H-spiro[azepane-4,3′-benzofuran]-1-yl)acetamide]",100 to 1000
3,"O=C(NC1Cc2ccc(F)cc21)C(=O)N1CCC2(CC1)COc1cc(C(F)(F)F)ccc12 (stereo not drawn) [Example 103, N-(4-Fluorobicyclo[4.2.0]octa-1(6),2,4-trien-7-yl)-2-oxo-2-(6-(trifluoromethyl)-2H-spiro[benzofuran-3,4′-piperidin]-1′-yl)acetamide]",> 1000
